Laboratory results taken from patent US5698550A, “Tetralin and chroman derivatives useful in the treatment of asthma, arthritis and related diseases” (Pfizer Inc., priority 1993, dated 1997).

Test system: PAF-induced lethality in CD1 male mice
Test: PAF lethality assay
Format: in vivo
Settings: Mus musculus; positive control; oral dosing 45 minutes before i.v. PAF injection; mortality compared to controls; read-out: approximate ED 50
Experimental: To evaluate the compounds of the formula (I) in vivo, they are tested by the so-called PAF lethality assay procedure:
Mice: CD1 males, all approximately the same weight (approximately 26 grams), 12 per group.
Vehicle for oral drug dosing: EES (5% ethanol, 5% emulphor, 90% saline). Stored at room temperature.
Drugs: For routine screening at 50 mg/kg, 20 mg drug is dissolved in 4 ml EES, using sonication in a sonicator bath or grinding in a Ten Broeck grinder to dissolve drug if necessary. If solubility is still a problem, the drug is used as a suspension.
Vehicle for i.v. Injection: Saline with 2.5 mg/ml Bovine Serum Albumin (BSA, Sigma #A4378) and 0.05 mg/ml Propranolol (Sigma #P0884). Prepared fresh daily and kept at room temperature.
Platelet Activating Factor (PAF): A […] stock solution is prepared by dissolving 1 mg PAF (Calbiochem #429460) in 0.18 ml ethanol. This is stored at -20° C. and is diluted in vehicle (see above) the day of use. The concentration of PAF used is calibrated so that when injected at 0.1 ml/10 grams body weight, it will kill approximately 80% of untreated controls. This is usually about […] (a 1 to 2034 dilution from stock). […]
45 minutes before PAF injection, mice are treated orally with drug using 0.1 ml/10 grams body weight. […] Results are expressed as percent mortality as compared to controls. […]

Question: How did the ED50 turn out when O=C1CCN(c2ccccc2)N1 [Phenidone] was run?
Answer: ~25 mg/kg
